Assay results: patent US8293729B2 (Boehringer Ingelheim International GmbH, priority 2009, dated 2012)

molecular target: T1, human GPR119 receptor (Homo sapiens, UniProt Q8TDV5, S329A/T327A); assay: cAMP assay (LANCE cAMP-384) in HEK293 cells stably expressing mutant human GPR119 receptor; type: cell-based; conditions: cAMP accumulation, HEK293 cells stably expressing mutant human GPR119; read-out: EC50
T1 construct: N-terminal leader […]; expressed in transfected cells
T1 sequence (Q8TDV5 with tags, fused parts or gaps T327A/S329A): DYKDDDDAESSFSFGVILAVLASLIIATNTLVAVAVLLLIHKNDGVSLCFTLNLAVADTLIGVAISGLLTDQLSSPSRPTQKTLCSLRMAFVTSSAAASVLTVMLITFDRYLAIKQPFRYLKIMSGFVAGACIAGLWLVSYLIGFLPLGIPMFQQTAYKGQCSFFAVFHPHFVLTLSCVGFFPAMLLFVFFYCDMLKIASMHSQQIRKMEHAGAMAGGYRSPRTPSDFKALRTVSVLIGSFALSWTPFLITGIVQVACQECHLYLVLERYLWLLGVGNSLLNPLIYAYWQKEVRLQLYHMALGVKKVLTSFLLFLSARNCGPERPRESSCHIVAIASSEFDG
Summary of the method: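 Agonist EC50 came from nonlinear regression over 12 concentrations (30 μM–100 pM), with % stimulation at 10 μM where no EC50 was obtained. Cells: stable HEK293 with mutant human GPR119 (T327A/S329A), 20 min compound at 37° C; cAMP read by LANCE kit with standard curve.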

Row | Compound | EC50
1 | CC(C)OC(=O)N1CCC(ON=C2CCN(c3nc(F)ccc3F)CC2)CC1 [Example 2-70] | 3260 nM
2 | CC(C)OC(=O)N1CCC(ON=C2CCN(c3cc(F)c(NS(N)(=O)=O)cc3F)CC2)CC1 [Example 38-1] | 197 nM
3 | COc1nc(N2CCC(=NOC3CCN(C(=O)OC(C)C)CC3)CC2)ncc1Br [Example 2-56] | > 10000 nM
4 | CC(C)OC(=O)N1CCC(ON=C2CCN(c3ccc(F)c(F)n3)CC2)CC1 [Example 2-71] | 2590 nM
5 | CC(C)OC(=O)N1CCC(ON=C2CCN(c3cc(F)c(CN4CCOC4=O)cc3F)CC2)CC1 [Example 15-1, 4-{1-[2,5-DIFLUORO-4-(2-OXO-OXAZOLIDIN-3-YLMETHYL)-PHENYL]-PIPERIDIN-4-YLIDENEAMINOOXY}-PIPERIDINE-1-CARBOXYLIC ACID ISOPROPYL ESTER] | 140 nM
6 | CCOC(=O)Nc1cc(F)c(N2CCC(=NOC3CCN(C(=O)OC(C)C)CC3)CC2)cc1F [Example 35-2] | 18 nM
7 | CC(C)OC(=O)N1CCC(ON=C2CCN(c3ccc(S(N)(=O)=O)cc3F)CC2)CC1 [Example 2-36] | 130 nM
8 | CSc1nc(N2CCC(=NOC3CCN(C(=O)OC(C)C)CC3)CC2)ncc1Br [Example 2-55] | > 10000 nM
9 | CC(C)OC(=O)N1CCC(ON=C2CCN(c3cnccn3)CC2)CC1 [Example 2-11] | > 10000 nM
10 | CC(C)OC(=O)N1CCC(ON=C2CCN(c3cc(F)c(-n4cccn4)cc3F)CC2)CC1 [Example 22-3] | 62 nM
11 | CC(C)OC(=O)N1CCC(ON=C2CCN(c3cc(F)c(-c4cc[nH]n4)cc3F)CC2)CC1 [Example 27-9] | 232 nM
12 | COCCN(C)Cc1cc(F)c(N2CCC(=NOC3CCN(C(=O)OC(C)C)CC3)CC2)cc1F [Example 5-5] | > 10000 nM
13 | CC(C)OC(=O)N1CCC(ON=C2CCN(c3cc(F)c(-c4cccnc4)cc3F)CC2)CC1 [Example 27-4] | 182 nM
14 | CC(C)OC(=O)N1CCC(ON=C2CCN(c3ccnc(Cl)n3)CC2)CC1 [Example 2-46] | 1880 nM
15 | CC(C)OC(=O)N1CCC(ON=C2CCN(c3cc(Cl)c(F)cc3C(=O)O)CC2)CC1 [Example 2-21] | > 10000 nM
16 | CC(C)OC(=O)N1CCC(ON=C2CCN(c3ncc(F)cc3F)CC2)CC1 [Example 2-69] | 1020 nM
17 | CC(C)OC(=O)N1CCC(ON=C2CCN(c3cc(F)c(-c4cnn(C)c4)cc3F)CC2)CC1 [Example 27-34] | 126 nM

same assay, conditions: the 15th table; read-out: EC50

Row | Compound | EC50
18 | CC(C)OC(=O)N1CCC(ON=C2CCN(c3cc(F)c(C(=O)N4CCN(C)CC4)cc3F)CC2)CC1 [Example 29-4] | 80 nM
19 | CC(C)OC(=O)N1CCC(ON=C2CCN(c3cc(F)c(C(=O)N4CCC(CN(C)C)CC4)cc3F)CC2)CC1 [Example 29-47] | 264 nM
20 | CC(C)OC(=O)N1CCC(ON=C2CCN(c3cc(F)c(C(=O)N4CCCCC4CN)cc3F)CC2)CC1 (centres unmarked) [Example 29-57] | 185 nM

same assay, conditions: the 19th table; unit inferred; read-out: EC 50

Row | Compound | EC50
21 | CCc1cnc(N2CCC(ON=C3CCN(c4cc(F)c(C(=O)N5CCCC(CNC)C5)cc4F)CC3)CC2)nc1 (centres unmarked) [Example 29-129] | 50 nM
22 | CCc1cnc(N2CCC(ON=C3CCN(c4cc(F)c(C(=O)N5CCCCC5CNC)cc4F)CC3)CC2)nc1 (centres unmarked) [Example 29-136] | 120 nM
23 | CCc1cnc(N2CCC(ON=C3CCN(c4cc(F)c(C(=O)N5CCCC(CN)C5)cc4F)CC3)CC2)nc1 (centres unmarked) [Example 29-124] | 55 nM
24 | CCc1cnc(N2CCC(ON=C3CCN(c4cc(F)c(C(=O)N5C[C@@H]6C[C@H]5CN6)cc4F)CC3)CC2)nc1 [Example 29-115] | 2010 nM
25 | CCc1cnc(N2CCC(ON=C3CCN(c4cc(F)c(C(=O)N5CCC[C@@H](N)C5)cc4F)CC3)CC2)nc1 [Example 29-88] | 221 nM

same assay, conditions: the 25th table; read-out: EC50

Row | Compound | EC50
26 | COC(=O)/C=C/c1cc(F)c(N2CCC(=NOC3CCN(C(=O)OC(C)C)CC3)CC2)cc1F [Example 39-1, 4-{1-[2,5-Difluoro-4-((E)-2-methoxycarbonyl-vinyl)-phenyl]-piperidin-4-ylideneaminooxy}-piperidine-1-carboxylic acid isopropyl ester] | 46 nM

same assay, conditions: the 26th table; read-out: EC50

Row | Compound | EC50
27 | CC(C)OC(=O)N1CCC(ON=C2CCN(c3ccc(S(C)(=O)=O)cn3)CC2)CC1 [Example 46-3] | 614 nM

same assay, conditions: the 31st table; read-out: EC50

Row | Compound | EC50
28 | CC(C)OC(=O)N1CCC(ON=C2CCCN(c3ccc(S(C)(=O)=O)cc3F)C2)CC1 (mixture of isomers) [Example 61-1, 4-[1-(2-Fluoro-4-methanesulfonyl-phenyl)-piperidin-(3Z)-ylideneaminooxy]-piperidine-1-carboxylic acid isopropyl ester] | > 10000 nM

same assay, conditions: the 32nd table; read-out: EC50

Row | Compound | EC50
29 | CCOC(=O)c1ccc(N2CCC(ON=C3CCN(c4ccc(S(C)(=O)=O)cc4F)CC3)CC2)nc1 [Example 63-26] | > 10000 nM

same assay, conditions: the 33rd table; read-out: EC50

Row | Compound | EC50
30 | CC1(COC(=O)N2CCC(ON=C3CCN(c4ccc(S(C)(=O)=O)cc4F)CC3)CC2)CC1 [Example 64-7] | 67 nM
31 | CC(C)[C@H](N)COC(=O)N1CCC(ON=C2CCN(c3ccc(S(C)(=O)=O)cc3F)CC2)CC1 [Example 64-37] | > 10000 nM
32 | CS(=O)(=O)c1ccc(N2CCC(=NOC3CCN(C(=O)OC4CCNC4)CC3)CC2)c(F)c1 (centres unmarked) [Example 64-36] | > 10000 nM
33 | CC(N)COC(=O)N1CCC(ON=C2CCN(c3ccc(S(C)(=O)=O)cc3F)CC2)CC1 (centres unmarked) [Example 64-34] | > 10000 nM
34 | CN1CCC(OC(=O)N2CCC(ON=C3CCN(c4ccc(S(C)(=O)=O)cc4F)CC3)CC2)C1 (centres unmarked) [Example 64-13] | > 10000 nM
35 | CS(=O)(=O)c1ccc(N2CCC(=NOC3CCN(C(=O)OCC4CCC4)CC3)CC2)c(F)c1 [Example 64-6] | 36 nM

same assay, conditions: the 34th table, compounds 65-1 to 65-24; read-out: EC50

Row | Compound | EC50
36 | CS(=O)(=O)c1ccc(N2CCC(=NOC3CCN(C(=O)Nc4ccccc4)CC3)CC2)c(F)c1 [Example 65-17] | 2040 nM
37 | CS(=O)(=O)c1ccc(N2CCC(=NOC3CCN(C(=O)c4ccccc4)CC3)CC2)c(F)c1 [Example 65-21] | 747 nM

same assay, conditions: the 36th table, compounds 66-1 to 66-51; read-out: EC50

Row | Compound | EC50
38 | CS(=O)(=O)c1ccc(N2CCC(=NOC3CCN(Cc4ccc(Br)cc4)CC3)CC2)c(F)c1 [Example 66-41] | 609 nM
39 | Cn1cccc1CN1CCC(ON=C2CCN(c3ccc(S(C)(=O)=O)cc3F)CC2)CC1 [Example 66-1, 1-(2-Fluoro-4-methanesulfonyl-phenyl)-piperidin-4-one O-[1-(1-methyl-1H-Pyrrol-2-ylmethyl)-piperidin-4-yl]-oxime] | > 10000 nM
40 | Cc1c(CN2CCC(ON=C3CCN(c4ccc(S(C)(=O)=O)cc4F)CC3)CC2)cnn1C [Example 66-7] | > 10000 nM

same assay, conditions: the 37th table, compounds 66-52 to 66-64; read-out: EC50

Row | Compound | EC50
41 | Cc1ccc(CN2CCC(ON=C3CCN(c4cc(F)c(S(C)(=O)=O)cc4F)CC3)CC2)cc1 [Example 66-54] | 44 nM
42 | CCCc1ccc(CN2CCC(ON=C3CCN(c4cc(F)c(S(C)(=O)=O)cc4F)CC3)CC2)cc1F [Example 66-60] | 31 nM

same assay, conditions: the 39th table, compounds 67-1 to 67-3; read-out: EC50

Row | Compound | EC50
43 | CCc1ccc(N2CCC(ON=C3CCN(c4ccc(S(C)(=O)=O)cc4F)CC3)CC2)nc1 [Example 67-2] | 558 nM

same assay, conditions: the 43rd table, compounds 75-1 to 75-38; read-out: EC50

Row | Compound | EC50
44 | CC(C)OC(=O)N1CCC(ON=C2CCN(c3cc(F)c(CC(=O)N4CCC[C@@H](N)C4)cc3F)CC2)CC1 [Example 75-14] | 51 nM
45 | CC(C)OC(=O)N1CCC(ON=C2CCN(c3cc(F)c(CC(=O)N4CCCCC4CN4CCCC4)cc3F)CC2)CC1 (centres unmarked) [Example 75-30] | 333 nM
46 | CC(C)OC(=O)N1CCC(ON=C2CCN(c3cc(F)c(CC(=O)NCCN(C)C)cc3F)CC2)CC1 [Example 75-1, 4-(1-{4-[(2-dimethylamino-ethylcarbamoyl)-methyl]-2,5-difluoro-phenyl}-piperidin-4-ylideneaminooxy)-piperidine-1-carboxylic acid isopropyl ester] | 254 nM
47 | CC(C)OC(=O)N1CCC(ON=C2CCN(c3cc(F)c(CC(=O)N4CC[C@H](N)C4)cc3F)CC2)CC1 [Example 75-20] | 45 nM
